In PubChem BioAssay (NCI):
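Tested at 5 concentrations; 48 h exposure; 96-well plates; endpoints linearly interpolated, else capped at highest concentration. GI50 is the concentration that inhibits growth by half. TGI is the concentration that stops growth completely.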

Experiments:
Experiment in all cases: DTP human tumour cell line panel, 48 h
[1] = test system: NCI-H460 lung
[2] = test system: A549 NSCLC
[3] = test system: OVCAR-5 ovarian
[4] = test system: RPMI-8226 leukemia
[5] = test system: HS 578T breast
[6] = test system: HCT-116 colon
[7] = test system: BT-549 breast

Row | Compound | GI50 [1] | TGI [1] | TGI [2] | GI50 [3] | TGI [3] | GI50 [4] | TGI [4] | TGI [5] | TGI [6] | GI50 [7] | TGI [7] | GI50 [2] | GI50 [5] | GI50 [6]
1 | C[C@@H]1CC[C@@]2(OC1)O[C@H]1C[C@H]3[C@@H]4CC=C5C[C@@H](O[C@@H]6O[C@H](CO)[C@@H](O[C@@H]7O[C@@H](CO)[C@H](O)[C@H]7O)[C@H](O)[C@H]6O[C@@H]6O[C@@H](C)[C@H](O)[C@@H](O)[C@H]6O)CC[C@]5(C)[C@H]4CC[C@]3(C)[C@H]1[C@@H]2C | 0.928 µM | 2.29 µM | 2.04 µM | 1.29 µM | 2.56 µM | 1.09 µM | 2.4 µM | 2.49 µM | 2.09 µM | 1.5 µM | 2.94 µM | – | – | –
2 | COc1ccccc1-n1c(SCc2cc(OC)c(OC)c(OC)c2)nc2ccc(Cl)cc2c1=O | 3.34 µM | > 100 µM | > 100 µM | 7.47 µM | > 100 µM | 3.71 µM | > 100 µM | > 100 µM | > 100 µM | 3.95 µM | > 100 µM | 2.87 µM | 5.81 µM | 2.53 µM
3 | COc1ccc(C(O)c2cc3c(N)c(C(=O)Nc4cccc(Br)c4)sc3nc2C)cc1 (stereo not given) | 0.109 µM | 3.61 µM | > 100 µM | 0.216 µM | > 100 µM | 0.371 µM | 33.6 µM | > 21.7 µM | 16.8 µM | 0.17 µM | > 23.2 µM | 0.14 µM | 0.101 µM | 0.107 µM
4 | Fc1ccc(-c2ncn(C3CCNCC3)c2-c2ccnc(Oc3cccc(F)c3)n2)cc1 | 7.46 µM | > 21.8 µM | > 25 µM | 22.2 µM | > 25 µM | 24.6 µM | > 25 µM | 24.8 µM | > 21.4 µM | > 24 µM | > 25 µM | 24.7 µM | > 12 µM | 9.3 µM
5 | CN(Cc1cnc2nc(N)nc(N)c2n1)c1ccc(C(=O)NC(CCC(=O)O)C(=O)O)cc1 (stereo not given) | 0.05 µM | > 100 µM | > 100 µM | 0.668 µM | > 100 µM | 0.629 µM | > 100 µM | > 100 µM | > 100 µM | 6.51 µM | > 100 µM | 0.0605 µM | > 100 µM | 0.0416 µM
6 | COC(=O)CCC1=C(C)c2cc3[n-]c(cc4nc(cc5[n-]c(cc1n2)c(CCC(=O)OC)c5C)C=C4C)cc3C.[Cd+2] | 0.868 µM | 3.2 µM | 22.9 µM | 16.8 µM | 39.7 µM | 4.23 µM | > 29.5 µM | > 100 µM | 25.3 µM | 0.925 µM | 2.39 µM | 4.24 µM | 5.73 µM | 8.42 µM
7 | O=c1[nH]c(-c2ccc(C(F)(F)F)cc2)nc2c1CSCC2 | > 100 µM | > 100 µM | > 100 µM | 79.9 µM | > 100 µM | > 100 µM | > 100 µM | > 100 µM | > 100 µM | > 94.3 µM | > 100 µM | 32.9 µM | 45.8 µM | > 63.7 µM
8 | COc1ccc(/C=C2\N=C3SC=C(N)N3C2=O)cc1 | 0.582 µM | 14 µM | 15.6 µM | 2.13 µM | 12 µM | 0.492 µM | 2.99 µM | 5.56 µM | 2.61 µM | 0.73 µM | 3.84 µM | 1.64 µM | 1.19 µM | 1.11 µM
9 | Cn1cnc([N+](=O)[O-])c1Sc1ncnc2c1ncn2C1OC(CO)C(O)C1O (stereo not given) | 5.72 µM | > 100 µM | > 100 µM | 42 µM | > 100 µM | 2.93 µM | > 100 µM | > 100 µM | > 100 µM | > 100 µM | > 100 µM | 29.3 µM | 27.8 µM | 4.62 µM
10 | O=Cc1coc2ccccc2c1=O | – | 50.9 µM | 84.9 µM | – | 56.2 µM | – | 52.1 µM | 53.4 µM | 32 µM | – | 36.8 µM | – | – | –
11 | O=C(NNS(=O)(=O)c1cc(C(F)(F)F)cc(C(F)(F)F)c1)c1cnn(-c2ccc(Cl)cc2)c1C(F)(F)F | 17.2 µM | 37.2 µM | 33.2 µM | 17.8 µM | 33.5 µM | 13.3 µM | 33.1 µM | 44.6 µM | 29.6 µM | 14.5 µM | 28 µM | 13.7 µM | 18.4 µM | 15.5 µM
12 | COc1ccc(/C=C2\COc3ccc(-c4ccccc4)cc3C2=O)cc1O | 2.07 µM | 5.8 µM | 18.9 µM | 4.13 µM | 14.7 µM | 3.61 µM | > 100 µM | 7.56 µM | 3.53 µM | 1.69 µM | 5.57 µM | 2.96 µM | 2.72 µM | 1.72 µM
13 | CC1OC(O)C(O)C(O)C1O (stereo not given) | – | > 100 µM | > 100 µM | – | > 100 µM | – | > 100 µM | > 100 µM | > 100 µM | – | > 100 µM | – | – | –
